According to patent US20220177446A1, “ALKYNE COMPOUNDS AS IRAK INHIBITORS, PREPARATION METHODS AND MEDICINAL USES THEREOF” (Eternity Bioscience Inc., priority 2020, published 2022):
Where two headings read alike, the source gives them in different places.

What was measured:
[1] = target: T1, full length human IRAK4 protein (Homo sapiens, UniProt Q9NWZ3); experiment: IRAK4 Biochemical Assay (Promega ADP-Glo IRAK4 Kinase Enzyme System); conditions: 3 nM enzyme, 250 μM ATP; for IC50: 2 μM MBP, 60 min at room temperature; for IRAK4 Biochemical Assay Max Inhibition (%): maximum inhibition
T1 construct: Purified full length human IRAK4 protein; purchased Signal Chem I12-10G-125
T1 sequence (Q9NWZ3 1-460): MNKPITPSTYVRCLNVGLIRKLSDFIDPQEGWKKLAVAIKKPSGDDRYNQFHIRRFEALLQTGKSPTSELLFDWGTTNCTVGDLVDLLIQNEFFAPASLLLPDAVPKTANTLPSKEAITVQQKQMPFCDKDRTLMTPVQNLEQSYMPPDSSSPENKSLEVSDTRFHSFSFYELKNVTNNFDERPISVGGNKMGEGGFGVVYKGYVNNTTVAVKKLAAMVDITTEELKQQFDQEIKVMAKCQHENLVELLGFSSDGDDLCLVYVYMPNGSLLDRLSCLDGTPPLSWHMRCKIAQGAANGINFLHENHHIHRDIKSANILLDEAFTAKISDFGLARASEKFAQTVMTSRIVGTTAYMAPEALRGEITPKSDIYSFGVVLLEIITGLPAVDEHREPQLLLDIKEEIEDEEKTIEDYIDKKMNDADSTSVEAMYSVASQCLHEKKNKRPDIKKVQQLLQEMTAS
Description: For the routine compound screening, an IRAK4 kinase assay was performed as follows using Promega ADP-Glo IRAK4 Kinase Enzyme System (Promega, Cat #2198-AD). Purified full length human IRAK4 protein (Signal Chem; Cat #I12-10G-125) was diluted to a concentration 6 nM in assay buffer (25 mM MOPS, pH 7.2, 12.5 mM β-glycerol-phosphate, 25 mM MgCl2, 5 mM EGTA, 2 mM EDTA, 0.0025% Brij-35, add 0.25 mM DTT to Kinase Assay Buffer prior to use) containing IRAK4 inhibitor at 2× the final concentration in 0.4% DMSO. The reaction was performed in PerkinElmer Proxiplate-384 plus white plate (Fisher Scientific, Cat #50-905-2761) and started by the addition of an equal volume of the assay buffer containing 4 μM native swine myelin basic protein (MBP) and 500 μM ATP to achieve a final concentration of 3 nM enzyme, 2 μM MBP, 250 μM ATP, 1× compound, and 0.2% DMSO. The kinase reaction was allowed to run for 60 min at room temperature (25-27° C.), then 5 μL of ADP-Glo was added to the reaction in each well followed by 40 minutes-incubation at RT. To detect converted […], 10 μL Detection Buffer was added into each well and Incubate at RT in dark for 30 minutes. Finally, luminescence was read using Tecan with 1000 ms of integration time. The luminescent signal positively correlates with ADP amount and kinase activity. Data was analyzed by GraphPad Prism and IC50 was calculated using function log(inhibitor) vs. response—Variable slope (four parameters). Percentage of inhibition was calculated as below:
(§1) % inhibition=(1−(Reading(Sample)−Reading(Negative Control))/(Reading(Positive Control)−Reading(Negative Control)))×100%
The 0% inhibition value comes from the Reading of Positive Control wells having 0 nM compound. The 100% inhibition value comes from the Reading of Negative Control wells having no IRAK4 kinase.

IRAK4 = target: T2, IRAK4 (Homo sapiens, UniProt Q9NWZ3); experiment: IRAK4 Human PBMC TNFα Cell Based Assay (AlphaLISA); conditions: TNFα measured
T2 construct: host or cells: human peripheral blood mononuclear cells (PBMCs)
T2 sequence (Q9NWZ3 1-460): T1 sequence (Q9NWZ3 1-460)
Description: In this assay, serially diluted compounds were incubated with 1×10^4 human peripheral blood mononuclear cells (PBMCs) from STEMCELL (Cat #70025.1) per well of 384-well plate (Fisher Scientific; 50-905-2761) and cultured with TexMACS medium (Miltenyi, Cat #130-097-196), stimulated by R848 (0.5 μM) or IL-1β (10 ng/ml). Plates were covered with lids and incubated for 4 h (R848, Fisher Scientific, Cat #NC9801605) or 24 h (IL-1β, Fisher Scientific, Cat #ENRIL1BI) at 37° C. in a humidified tissue-culture incubator. After a brief centrifugation at 1000 rpm for 5 minutes, 5 μl of culture medium was used for the measurement of the TNFα amount using TNFα (human) AlphaLISA Detection Kit (PerkinElmer, Cat #AL208C) according to manufacturer's protocol. A biotinylated anti-TNFα antibody binds to the Streptavidin-coated Donor beads while another anti-TNFα antibody is conjugated to AlphaLISA Acceptor beads. In the presence of the TNFα, the beads come into close proximity. The excitation of the Donor beads causes the release of singlet oxygen molecules that triggers a cascade of energy transfer in the Acceptor beads, resulting in a sharp peak of light emission at 615 nm. AlphaLISA assay plates were read using PHERAstar. Percentage of inhibition was calculated as below:
as §1
The 0% inhibition value comes from the Reading of Positive Control wells having 0 nM compound. The 100% inhibition value comes from the Reading of Negative Control wells having no R848 or IL-1β.

[2] = human PBMCs stimulated by IL-1β (10 ng/ml), 24 h, read-out: IRAK4 PBMC AlphaLISA IL-1β (IC50)
[3] = human PBMCs stimulated by R848 (0.5 μM), 4 h, read-out: IRAK4 PBMC AlphaLISA R848 (IC50)

SMILES | IC50 [1] | IRAK4 Biochemical Assay Max Inhibition (%) [1] | IC50 (IRAK4; [2]) | IC50 (IRAK4; [3])
CC[C@@H]1[C@H](F)C(=O)N[C@@H]1COc1ncc(C#CC(C)(C)O)c2cc(C(N)=O)c(OC(C)C)cc12 [Example 29, 1-(((2S,3S,4S)-3-ethyl-4-fluoro-5-oxopyrrolidin-2-yl)methoxy)-4-(3-hydroxyl-3-methylbut-1-yn-1-yl)-7-isopropoxyisoquinoline-6-carboxamide] | 26 nM | 100.0% | 3.5 nM | 6.7 nM
CC[C@@H]1[C@H](F)C(=O)N[C@@H]1COc1ncc(C#Cc2ccccc2)c2cc(C(N)=O)c(OC)cc12 [Example 27, 1-(((2S,3S,4S)-3-ethyl-4-fluoro-5-oxopyrrolidin-2-yl)methoxy)-7-methoxy-4-(phenylethynyl)isoquinoline-6-carboxamide] | 24 nM | 100.0% | 1.8 nM | 5.3 nM
CC[C@@H]1[C@H](F)C(=O)N[C@@H]1COc1ncc(C#CC(C)(C)OC)c2cc(C(N)=O)c(OC)cc12 [Example 28, 1-(((2S,3S,4S)-3-ethyl-4-fluoro-5-oxopyrrolidin-2-yl)methoxy)-7-methoxy-4-(3-methoxy-3-methylbut-1-yn-1-yl)isoquinoline-6-carboxamide] | 37 nM | 100.0% | 9.2 nM | 5.5 nM
CC[C@@H]1[C@H](F)C(=O)N[C@@H]1COc1ncc(C#Cc2cncnc2)c2cc(C(N)=O)c(OC)cc12 [Example 12, 1-(((2S,3S,4S)-3-ethyl-4-fluoro-5-oxopyrrolidin-2-yl)methoxy)-7-methoxy-4-(pyrimidin-5-ylethynyl)isoquinoline-6-carboxamide] | 69 nM | 100.0% | 0.8 nM | 1.4 nM
CC[C@@H]1[C@H](F)C(=O)N[C@@H]1COc1ncc(C#Cc2cccnc2)c2cc(C(N)=O)c(OC)cc12 [Example 14, 1-(((2S,3S,4S)-3-ethyl-4-fluoro-5-oxopyrrolidin-2-yl)methoxy)-7-methoxy-4-(pyridin-3-ylethynyl)isoquinoline-6-carboxamide] | 29 nM | 100.0% | 1.3 nM | 1.6 nM
CC[C@@H]1[C@H](F)C(=O)N[C@@H]1COc1ncc(C#Cc2cn[nH]c2)c2cc(C(N)=O)c(OC)cc12 [Example 20, 4-((1H-pyrazol-4-yl)ethynyl)-1-(((2S,3S,4S)-3-ethyl-4-fluoro-5-oxopyrrolidin-2-yl)methoxy)-7-methoxyisoquinoline-6-carboxamide] | 22 nM | 100.0% | 1.7 nM | 3 nM
CC[C@@H]1[C@H](F)C(=O)N[C@@H]1COc1ncc(C#CC(C)(C)N(C)C)c2cc(C(N)=O)c(OC)cc12 [Example 34, 4-(3-(dimethylamino)-3-methylbut-1-yn-1-yl)-1-(((2S,3S,4S)-3-ethyl-4-fluoro-5-oxopyrrolidin-2-yl)methoxy)-7-methoxyisoquinoline-6-carboxamide] | 8.9 nM | 92.0% | 46 nM | 32 nM
CC[C@@H]1[C@H](F)C(=O)N[C@@H]1COc1ncc(C#CC(C)(C)N)c2cc(C(N)=O)c(OC)cc12 [Example 2, 4-(3-amino-3-methylbut-1-yn-1-yl)-1-(((2S,3S,4S)-3-ethyl-4-fluoro-5-oxopyrrolidin-2-yl)methoxy)-7-methoxyisoquinoline-6-carboxamide] | 63 nM | 100.0% | 25 nM | 16 nM
CC[C@@H]1[C@H](F)C(=O)N[C@@H]1COc1ncc(C#C[C@H](C)O)c2cc(C(N)=O)c(OC)cc12 [Example 18, 1-(((2S,3S,4S)-3-ethyl-4-fluoro-5-oxopyrrolidin-2-yl)methoxy)-4-((S)-3-hydroxybut-1-yn-1-yl)-7-methoxyisoquinoline-6-carboxamide] | 27.5 nM | 95.0% | 1.7 nM | 2.5 nM

More lines, in order of falling IC50 [1], values ahead:

IC50 [1] | IRAK4 Biochemical Assay Max Inhibition (%) [1] | IC50 (IRAK4; [2]) | IC50 (IRAK4; [3]) | SMILES
23 nM | 100.0% | 0.8 nM | 3.4 nM | CC[C@@H]1[C@H](F)C(=O)N[C@@H]1COc1ncc(C#Cc2ccncc2)c2cc(C(N)=O)c(OC)cc12 [Example 22, 1-(((2S,3S,4S)-3-ethyl-4-fluoro-5-oxopyrrolidin-2-yl)methoxy)-7-methoxy-4-(pyridin-4-ylethynyl)isoquinoline-6-carboxamide]
22 nM | 98.0% | 4.6 nM | 3.1 nM | CC[C@@H]1[C@H](F)C(=O)N[C@@H]1COc1ncc(C#Cc2nnn(C)n2)c2cc(C(N)=O)c(OC)cc12 [Example 21, 1-(((2S,3S,4S)-3-ethyl-4-fluoro-5-oxopyrrolidin-2-yl)methoxy)-7-methoxy-4-((2-methyl-2H-tetrazol-5-yl)ethynyl)isoquinoline-6-carboxamide]
17 nM | 100.0% | 4.7 nM | 2.7 nM | CC[C@@H]1[C@H](F)C(=O)N[C@@H]1COc1ncc(C#CC(C)(C)O)c2cc(C(N)=O)c(OC)cc12 [Example 3, 1-(((2S,3S,4S)-3-ethyl-4-fluoro-5-oxopyrrolidin-2-yl)methoxy)-4-(3-hydroxyl-3-methylbut-1-yn-1-yl)-7-methoxyisoquinoline-6-carboxamide]
13 nM | 100.0% | 1.3 nM | 3 nM | CC[C@@H]1[C@H](F)C(=O)N[C@@H]1COc1ncc(C#C[C@@H](C)O)c2cc(C(N)=O)c(OC)cc12 [Example 19, 1-(((2S,3S,4S)-3-ethyl-4-fluoro-5-oxopyrrolidin-2-yl)methoxy)-4-((R)-3-hydroxybut-1-yn-1-yl)-7-methoxyisoquinoline-6-carboxamide]
10 nM | 95.0% | 1 nM | 0.7 nM | CC[C@@H]1[C@H](F)C(=O)N[C@@H]1COc1ncc(C#CC(=O)N(C)C)c2cc(C(N)=O)c(OC)cc12 [Example 11, 4-(3-(dimethylamino)-3-oxoprop-1-yn-1-yl)-1-(((2S,3S,4S)-3-ethyl-4-fluoro-5-oxopyrrolidin-2-yl)methoxy)-7-methoxyisoquinoline-6-carboxamide]
